Assay results: US7582620B2, “Use of mannan from saccharomyces cerevisiae for the treatment of asthma” (The University of Tennessee Foundation, priority 2003, dated 2009)

Experiments:
[1] = tested on: human airway smooth muscle cells; assay: Mitogenic effect of growth factors in human airway smooth muscle cells (MTT); assay type: cell-based; conditions: for mitogenic response after repeated passages: human ASMC of the same batch, p10
Experimental: (§1) Cell counts and cytotoxicity are assessed by tetrazolium salt reduction (MTT) […] assay in parallel experiments. Millipore filtered MTT (5 mg/ml, Sigma Chemical Co., St Louis, Mo.) dissolved in phosphate buffered saline (PBS, pH 7.2) is added to the microtiter wells (10 μl/well, 20 μl/16 mm well) at the end of the experimental period. After incubating at 37° C. for 4 h, media is removed from the microtiter wells and acidified with 0.04 M HCl. 2-propane/isopropanol is added to the wells at 200 μl/well or 400 μl/16 mm well for human airway smooth muscle cells. The plates are left at room temperature for 30 min and optical density is obtained by an ELISA reader (EL340 Microplate, Bio-Tek instruments, Winooski, Vt.) at 570 nm wave length. The results obtained by MTT assay correlate well with the viable cell counts obtained by the Trypan blue method using hemocytometer (Sigma cell count instruction manual). Cytotoxicity also is measured by LDH assays (Sigma). Release of LDH greater than 5% is considered cytotoxic.
[…] Cells were stimulated with Hex A (50 nM), PDGF (0.1 nM), EGF (100 nM), bFGF (5 nM), thrombin (Thr, 1 unit/ml), FBS (5% vol/vol), or vehicle (V; PBS for Hex; 0.1% BSA in 4 mM HCl for PDGF; 0.1% BSA for EGF and bFGF; unstimulated for Thr and FBS). Viable cell numbers were assessed by MTT assays after 42 h stimulation. […] Experiments were repeated three times.

[2] = tested on: bovine airway smooth muscle cells; assay type: cell-based
Experimental: as §1
Antisense human airway smooth muscle cell mannose receptor morpholino DNA oligonucleotides (M-oligos, 25 mer, 5 μM) delivered by the scrape method inhibited b hexosaminidase-induced mitogenesis in bovine ASMC by 37% compared to no inhibition by sense M-oligos (data not shown). […]

[3] = tested on: TNFα secretion, Hex secretion in BAL fluids; assay: TNFα and Hex secretion in BAL fluids, OVA-sensitized murine model; assay type: in vivo, mouse; conditions: aerosolized mannan pretreatment, day 31
Experimental: The activities of Hex are determined as previously described (Lew et al., 1991). Samples (50 μl) are incubated with 100 μl of pre-warmed buffered substrate (5 mM p-nitrophenyl-2-deoxy-β-D-glucosaminide in 0.1 M citrate/phoshate buffer, pH 4.5) in 96-well microtirter plates for 1 h at 37° C. After incubation, the reactions are stopped by the addition of 100 μl of 0.5 M boric acid/NaOH buffer, pH 10.6. p-nitrophenol released by the hydrolytic activity is quantified spectrophotometrically by using a Biotek ELISA reader at 405 nm wave length. The Beer-Lambert Law and molecular extinction coefficient for p-nitrophenol (E=18,700) are applied to obtain units of specific activity expressed as micromoles of substrate cleaved/h/10^6 cells. Purified Hex (Sigma) is tested in each assay as a positive internal control.
Immediately after measuring MCh responsiveness, animals are anesthetized with Ketamine/Xylazine at 50/50 mg/kg and lungs are lavaged once via tracheal tube with 1 ml phosphate buffered saline (PBS, 37° C.). The broncho alveolar lavage_fluid is analyzed for Hex activity and differential cell count. Hex activity in broncho alveolar lavage_fluids is 262±33 μmoles/hr in immunized mice versus 92±12 in non-immunized mice.
Experiments were performed in quadruplicate and repeated four times.
Histopathology and immunohistology were performed on lungs and airways.

[4] = tested on: human airway smooth muscle cells; assay: PDGF-induced mitogenesis in human airway smooth muscle cells (MTT); assay type: cell-based; conditions: mannan 0.1-1 mg/ml 30 min before 0.1 nM PDGF, 42 h, human ASMC
Experimental: as §1
(§2) Human airway smooth muscle cells in 24-well plates were starved for 18h in medium containing 0.1% FBS. Mannan in concentrations ranging from 0.1-1 mg/ml (Sigma) was added to the cells 30 min prior to the addition of 50 nM Hex A, 0.1 nM PDGF or vehicle (PBS for Hex or 0.1% BSA in 4 mM HCl for PDGF). Viable cell numbers were assessed by MTT assays after 42h stimulation. […]

[5] = tested on: OVA-sensitized and -challenged mice; assay: Histopathology of trachea and lung, OVA-sensitized murine model; assay type: in vivo, mouse
[6] = tested on: human airway smooth muscle cells; assay: Hex A-induced mitogenesis in human airway smooth muscle cells (MTT); assay type: cell-based; conditions: mannan 0.1-1 mg/ml 30 min before 50 nM Hex A, 42 h, human ASMC
Experimental: as §1, §2

[7] = tested on: bovine airway smooth muscle cells; assay: Hex A-induced mitogenesis in bovine airway smooth muscle cells; assay type: cell-based; conditions: bovine ASMC
Experimental: Measurement of ^3H-thymidine incorporation as an assessment of the rate of DNA synthesis is performed as described previously (Lew et al., 1994) with a modification. After the cells reach confluency and contact-inhibited in microtiter wells (16 mm wells for human airway smooth muscle cells), the medium is replaced with medium M199 (Cellgro, Mediatech, Washington D.C.) or SmBM (for huASMC) containing 0.1% vol/vol fetal bovine serum (FBS, Hyclone Lab. Inc., Logan, Utah) 48 h before exposure to test substances. ^3H-thymidine (0.5 μCi/well or 2.5 μC/16 mm well, sp act 10 Ci/mmol, Amersham Corp., Arlington Heights, Ill.) is added to the cells 18 h after the addition of test substances and cells are harvested 18 h later. Radioactivity is quantified in a liquid scintillation counter (2000 CA; Packard Instrument Co., Downers Grove, Ill.). Experiments are performed in quadruplicate and repeated 3 times.
Mannan, a polymer of mannose, is a specific mannose receptor blocker.

[8] = tested on: OVA-sensitized wild type FVB/N mice
Experimental: Enhanced pause (Penh) is measured using the software provided by the manufacturer.
Wild type FVB/N mice, ages 6-8 weeks, were immunized with ovalbumin (20 μg in Imject®-Alum, i.p.) on days 0, 14, 21 as described in Example 6. Non-immunized mice received i.p. injection of Alum only. Thirty minutes before each of the three ovalbumin challenges on days 28-30, the mice were pretreated via aerosol with 100 or 300 mg yeast mannan in 2 ml dH2O or 5 EU E. Coli endotoxin (Sigma Chemical Co., St Louis, Mo.) in 2 ml saline. Experiments were performed in quadruplicate and repeated four times.
Measurements of airway hyper-reactivity (AHR) and broncho alveolar lavage were performed on day 31.
Methacholine sensitivity and reactivity were measured by Penh parameter in spontaneously breathing animals on day 31 (FIG. 9).

[9] = tested on: naive wild type FVB/N mice; assay: Airway hyperreactivity after aerosolized Hex in naive mice (methacholine challenge, Penh); assay type: in vivo, mouse; conditions: aerosolized human Hex A 1 mg every other day for 2 weeks, day 15
Experimental: Six week old FVB/N mice were treated with aerosolized human Hex A (1 mg) or vehicle (PBS) every other day for 2 weeks. On day 15, lung physiology was non-invasively assessed by methacholine (Mch) challenge and changes in pulmonary resistance (pause enhancement, Penh).

PDGF [reference compound]
mitogenic response after repeated passages [1]: responded poorly

thrombin [reference compound]
mitogenic response after repeated passages [1]: responded poorly

Ethoxylated polyethylenimine [EPEI]
concentration beyond which the delivery system was cytotoxic [2]: > 3 μl/ml

mannan
induction of Hex secretion in BAL fluids [3]: did not induce
inhibition of TNFα secretion in BAL fluids [3]: 85-100%
inhibitory effect on PDGF-induced mitogenesis [4]: lack of inhibitory effect
trachea histology (H&E): trachealis muscle and epithelial layer ([5]; aerosolized mannan 300 mg): Trachealis muscle has normal appearance and the epithelial layer is intact
peribronchiolar cellular infiltration (H&E, lung) ([5]; mannan 300 mg pretreated mouse): marked decrease in peribronchiolar cellular infiltration in 3 out of 4 bronchioles
inhibition of Hex A-induced mitogenesis [6]: inhibited by mannan in a concentration dependent manner
inhibition of Hex A-induced mitogenesis [7]: inhibited by mannan in a concentration dependent manner
effect on OVA-induced airway hyper-reactivity (Penh) ([8]; aerosol 30 min before each OVA challenge on days 28-30 (mannan 100 or 300 mg, endotoxin 5 EU), measured on day 31): Blocks Airway Hyper-Reactivity
duration of the inhibitory effect ([8]; after the last dose of aerosolized yeast mannan): at least four
general condition of the treated mice ([8]; mouse, in vivo): remained healthy and active

B1: Hex A: human placental b hexosaminidase A (Sigma), lysosomal hydrolase, mannosyl-rich ligand of ASM-MR (protein)
chain 1: TLEKNVLVVSVVTPGCNQLPTLESVENYTLTINDDQCLLLSETVWGALRGLETFSQLVWKSAEGTFFINKTEIEDFPRFPHRGLLLDTSRHYLPLSSILDTLDVMAYNKLNVFHWHLVDDPSFPYESFTFPELMRKGSYNPVTHIYTAQDVKEVIEYARLRGIRVLAEFDTPGHTLSWGPGIPGLLTPCYSGSEPSGTFGPVNPSLNNTYEFMSTFFLEVSSVFPDFYLHLGGDEVDFTCWKSNPEIQDFMRKKGFGEDFKQLESFYIQTLLDIVSSYGKGYVVWQEVFDNKVKIQPDTIIQVWREDIPVNYMKELELVTKAGFRALLSAPWYLNRISYGPDWKDFYIVEPLAFEGTPEQKALVIGGEACMWGEYVDNTNLVPRLWPRAGAVAERLWSNKLTSDLTFAYERLSHFRCELLRRGVQAQPLNVGFCEQEFEQT
chain 2: TQVQQLLVSITLQSECDAFPNISSDESYTLLVKEPVAVLKANRVWGALRGLETFSQLVYQDSYGTFTINESTIIDSPRFSHRGILIDTSRHYLPVKIILKTLDAMAFNKFNVLHWHIVDDQSFPYQSITFPELSNKGSYSLSHVYTPNDVRMVIEYARLRGIRVLPEFDTPGHTLSWGKGQKDLLTPCYSRQNKLDSFGPINPTLNTTYSFLTTFFKEISEVFPDQFIHLGGDEVEFKCWESNPKIQDFMRQKGFGTDFKKLESFYIQKVLDIIATINKGSIVWQEVFDDKAKLAPGTIVEVWKDSAYPEELSRVTASGFPVILSAPWYLDLISYGQDWRKYYKVEPLDFGGTQKQKQLFIGGEACLWGEYVDATNLTPRLWPRASAVGERLWSSKDVRDMDDAYDRLTRHRCRMVERGIAAQPLYAGYCNHENM
airway hyperreactivity (Penh, methacholine challenge) [9]: increased airway hyperreactivity
mitogenic effect (viable cell numbers, MTT) ([1]; Hex A 50 nM, 42 h stimulation, serum-starved cells, passage #5): comparable to that of PDGF and fetal bovine serum
mitogenic response after repeated passages [1]: responded poorly
